This test relates to 22HT (DNA, G4) AGGGTTAGGGTTAGGGTTAGGG
Nature of the test: CD melting at 293 nm. The note with it: 10 mM Tris-HCl pH 7.2, 3 equiv. ligand.

The ΔTm is the shift of the melting midpoint relative to a reference. Take `CC[n+]1c(/C=C/c2ccc3c(c2)c2ccccc2n3CCCCn2ccnc2)sc2ccccc21`: the ΔTm (100 mM KCl, 2 µM DNA, SD of Tm ±0.5 °C) is 4.3 °C; the ΔTm (100 mM NaCl, 2 µM DNA, SD of Tm ±0.5 °C) is 4.5 °C; the ΔTm (no added Na+ or K+, ligand-induced G4 folding, Tm without ligand <14 °C) is above 30.6 °C.
